According to US20100029542A1, “PROTEIN STERILISATION BY RADIATION AND ADDITION OF A STABILISING COMPOSITION” (priority 2006, published 2010):
Where two headings read alike, the source gives them in different places.

What was measured:
human growth hormone [1] = biological target: T1, human growth hormone (Homo sapiens, UniProt P01241); assay: Recovery of structural integrity of human growth hormone in dry formulations following gamma irradiation (HPLC); format: physicochemical; conditions: as excipient in the formulation, disulphide bridge, HPLC
T1 construct: purchased National Institute of Biological Standards and Control; further samples on prescription from a GP surgery
T1 sequence (P01241 27-217): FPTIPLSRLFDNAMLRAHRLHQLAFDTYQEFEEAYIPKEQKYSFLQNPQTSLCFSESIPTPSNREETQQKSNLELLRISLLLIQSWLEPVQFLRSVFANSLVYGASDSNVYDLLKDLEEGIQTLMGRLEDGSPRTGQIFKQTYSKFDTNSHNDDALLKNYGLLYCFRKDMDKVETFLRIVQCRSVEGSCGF

glucose oxidase = biological target: T2, glucose oxidase (Aspergillus niger, UniProt P13006); assay: Activity recovery of glucose oxidase in dry formulations following gamma irradiation; format: physicochemical; conditions: for Enzyme activity remaining after gamma-irradiation: glucose oxidase 350 μg mL^−1 prior to drying, dry, 25-40 kGy, ambient temperature
T2 construct: purchased Biocatalysts G575P
T2 sequence (P13006 17-605): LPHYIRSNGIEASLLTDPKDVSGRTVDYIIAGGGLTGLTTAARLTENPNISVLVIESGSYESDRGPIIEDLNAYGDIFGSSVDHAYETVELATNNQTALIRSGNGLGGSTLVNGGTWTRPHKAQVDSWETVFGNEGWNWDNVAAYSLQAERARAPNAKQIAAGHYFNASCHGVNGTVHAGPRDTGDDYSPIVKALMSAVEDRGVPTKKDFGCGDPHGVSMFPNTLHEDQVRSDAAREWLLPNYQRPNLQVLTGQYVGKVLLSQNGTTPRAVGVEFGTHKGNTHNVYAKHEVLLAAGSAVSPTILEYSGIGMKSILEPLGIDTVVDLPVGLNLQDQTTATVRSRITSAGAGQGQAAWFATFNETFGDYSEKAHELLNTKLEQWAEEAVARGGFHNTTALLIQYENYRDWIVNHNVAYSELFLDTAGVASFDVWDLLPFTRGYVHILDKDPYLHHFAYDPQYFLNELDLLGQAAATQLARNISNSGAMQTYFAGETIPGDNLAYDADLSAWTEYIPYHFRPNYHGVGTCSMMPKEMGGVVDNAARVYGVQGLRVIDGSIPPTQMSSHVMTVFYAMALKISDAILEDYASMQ
Experimental: (§1) In each example, an aqueous solution of a protein was prepared with selected additives in an Eppendorf tube or in a glass vial. Water was removed from the formulation by drying under a stream of nitrogen at 30° C. and subsequent incubation at atmospheric pressure in the presence of a dessicant. The Eppendorf tubes or the glass vials were sealed and delivered to an industrial sterilisation service for gamma irradiation, with a dose range typical for sterile medical products. The gamma-irradiated samples were reconstituted on their return and analysed for protein activity or structural integrity. The results were compared with those achieved using control (i.e. non-irradiated) samples.
(§2) The dry samples (approx. 20 μg in an Eppendorf tube) were gamma-irradiated by an industry-standard commercial sterilising service provided by Isotron PLC (Swindon, Wilts, UK), using a Cobalt 60 gamma source at ambient temperature. The radiation dose was in the range of 25-40 kGy.
(§3) The original solutions (i.e. solutions prior to drying) contained 350 μg mL^−1 of glucose oxidase and typically the total of 100 mM of protective compounds (i.e. 100 mM in case of a single compound, 50 mM+50 mM in case of two compounds, 33.3 mM+33.3 mM+33.3 mM in the case of three compounds etc.). The solutions were dried and gamma irradiated. Following the gamma irradiation, the samples, both pre- and post-gamma irradiated, were assayed for glucose oxidase activity. This was performed according to the following procedure:
Water was added to the sample to achieve 350 μg mL^−1 of glucose oxidase. 50 μL of the solution was added to 50 mL of deionised water. The following solutions were then added: • 10 mL of reagent mix (5 parts of 0.1 M sodium phosphate, pH 6+4 parts 2% w/w starch+1 part of 1 mg/mL lactoperoxidase enzyme); • 5 mL of 100 mM potassium iodide; and • 5 mL of 20% w/w glucose solution.
These were mixed together quickly. Time=0 was counted from the addition of the glucose. After 5 min, 1 ml of 5 M aq. hydrochloric acid was added to stop the reaction. The absorbance was then read at 630 nm using a Unicam UV-visible spectrophotometer (Type: Helios gamma). If the colour intensity was too great to allow an accurate reading, the sample was diluted with a defined volume of deionised water to bring the colour back on scale. The results were expressed as percentage recovery, by reference to the absorbance measured in the pre-gamma irradiation samples.

[2] = cited from earlier work; for Rate constant k: Table 1, singlet oxygen scavengers, measured in specified solvents
Sandostatin = assay: Recovery of structural integrity of Sandostatin in dry formulations following gamma irradiation (HPLC); format: physicochemical; conditions: Table 8, singlet oxygen scavengers, structural integrity by HPLC, excipient:Sandostatin weight ratio 10:1, 25-40 kGy
Experimental: as §1, §2
Mobile phase A was 0.1 M triethylamine adjusted to pH 2.3 with phosphoric acid. Mobile phase B was acetonitrile. The mobile phases were filtered prior to their use. The following linear gradient was used: time 0: 90% A+10% B; time 35 min: 60% A+40% B. The liquid chromatograph (Agilent 1100 series) was equipped with a 214 nm detector, guard column and a 4.6×150 mm C18 column with a granulometry of 5 μm and a porosity of 30 nm, maintained at ambient temperature. The flow rate was maintained at 1.0 mL min^−1. Injection volume was 50 μL (typically sandostatin at 200 μg mL^−1). Results were expressed as % of main peak area (i.e. area of the peak corresponding to intact sandostatin measured in the gamma irradiated sample with respect to that measured in non-irradiated sample of identical composition). A chromatogram of a standard solution of sandostatin was recorded after every 12 samples to ensure that no drift in the position of the major peak had occurred. The control measurements ruled out any ambiguity in interpreting the chromatograms.

human growth hormone [3] = biological target: T1, human growth hormone; assay: Recovery of structural integrity of human growth hormone in dry formulations following gamma irradiation (HPLC); format: physicochemical; conditions: Table 7, singlet oxygen scavengers, structural integrity by HPLC, human growth hormone 2.5 mg mL^−1 prior to drying, 25-40 kGy
Experimental: as §1, §2
Mobile phase was prepared by mixing 71 parts (by volume) of a solution of TRIS (0.05 M, in water adjusted with hydrochloric acid to a pH of 7.5) and 29 parts (by volume) of n-propylalcohol. The mobile phase was filtered prior to its use. The liquid chromatograph (Agilent 1100 series) was equipped with a 214 nm detector and a 4.6×250 mm column (Phenomenex 00G-4167-E0) packed with butylsilyl silica gel with a granulometry of 5 μm and a porosity of 30 nm, maintained at 45° C. The flow rate was maintained at 0.5 mL min^−1. 15 μL of aqueous samples of human growth hormone (typically 1-2.5 mg mL^−1) were injected. Results were expressed as % of peak area corresponding to the gamma irradiated sample with respect to that measured in non-irradiated sample.

catalase = biological target: T3, catalase (Bos taurus, UniProt P00432); assay: Activity recovery of catalase in dry formulations following gamma irradiation; format: physicochemical, bovine; conditions: Table 6, singlet oxygen scavengers; catalase 100 μg mL^−1 prior to drying; dry; 25-40 kGy, ambient temperature
T3 construct: Catalase (from bovine liver, Sigma C9322, 2380 U /mg solid); purchased Sigma C9322; host or cells: bovine liver
T3 sequence (P00432 2-527 limits assumed): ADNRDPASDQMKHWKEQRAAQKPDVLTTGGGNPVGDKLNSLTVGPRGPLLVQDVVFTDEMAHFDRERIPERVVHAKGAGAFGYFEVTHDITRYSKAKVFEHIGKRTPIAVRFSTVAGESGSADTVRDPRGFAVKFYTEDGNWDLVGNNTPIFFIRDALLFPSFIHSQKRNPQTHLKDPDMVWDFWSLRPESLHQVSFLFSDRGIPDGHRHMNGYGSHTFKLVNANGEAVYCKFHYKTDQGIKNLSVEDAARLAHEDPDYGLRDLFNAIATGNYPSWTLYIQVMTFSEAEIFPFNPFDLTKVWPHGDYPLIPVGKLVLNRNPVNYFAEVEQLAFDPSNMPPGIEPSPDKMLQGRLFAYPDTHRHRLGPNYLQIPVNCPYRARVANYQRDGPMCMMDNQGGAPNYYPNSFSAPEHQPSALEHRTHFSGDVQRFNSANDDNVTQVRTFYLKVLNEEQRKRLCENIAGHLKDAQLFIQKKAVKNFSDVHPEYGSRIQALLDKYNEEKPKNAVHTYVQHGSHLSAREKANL
Experimental: as §1, §2
as §3, with “contained 100” for “contained 350”, “of catalase” for “of glucose oxidase”
Water was added to the sample to achieve 100 μg mL^−1 of catalase. 100 μL of the solution was added to a mixture of 18 mL of PBS and 2 mL of hydrogen peroxide (30 mM in water) in a 125 mL polypropylene pot and mixed. The resulting mixture was incubated at room temperature precisely for 30 min. In the meantime, the following reagents were mixed in a plastic cuvette for spectrophotometric measurements: • 2.73 mL of citrate/phosphate buffer (0.1 M, pH 5.0) • 100 μL of tetramethylbenzidine (TMB) (3 mg/mL, dissolved in dimethyl sulphoxide (DMSO)) • 100 μL of lactoperoxidase
Following the 30 min incubation period, 70 μL of the catalase containing mixture was added to the cuvette and absorbance was read in approximately 30 s. The results were expressed as percentage recovery, by reference to the absorbance measured in the fresh samples (i.e. prior to incubation at increased temperature).

| SMILES | Compatibility of the compound with human growth hormone (human growth hormone [1]) | Compatibility of the compound with human growth hormone (human growth hormone [1]; listed as cysteine) | Enzyme activity remaining after gamma-irradiation (glucose oxidase; Table 3, prior-art antioxidants, vs non-irradiated) [%] | Rate constant k [2] | Compatibility of the compound with human growth hormone (human growth hormone [1]; listed as N-acetylcysteine) | Compatibility of the compound with glucose oxidase (glucose oxidase; as excipient in the formulation) | Enzyme activity remaining after gamma-irradiation (glucose oxidase; Table 5, singlet oxygen scavengers) [%] | Rate of reaction with singlet oxygen ([2]; Table 5) [M⁻¹ s⁻¹] | Rate of reaction with singlet oxygen ([2]; Table 6) [M⁻¹ s⁻¹] | Rate of reaction with singlet oxygen ([2]; Table 7) [M⁻¹ s⁻¹] | Rate of reaction with singlet oxygen ([2]; Table 8) [M⁻¹ s⁻¹] | Enzyme activity remaining after gamma-irradiation (Sandostatin) [%] | Structural integrity remaining after gamma-irradiation (HPLC) (human growth hormone [3]) [%] | Enzyme activity remaining after gamma-irradiation (catalase) [%] |
| --- | --- | --- | --- | --- | --- | --- | --- | --- | --- | --- | --- | --- | --- | --- |
| N[C@@H](CS)C(=O)O [Cysteine] | **Compound was found incompatible with human growth hormone | incompatibility with human growth hormone | 49.1 | k = 5 × 10^7 L mol^−1 s^−1 | – | – | – | – | – | – | – | – | – | – |
| CC(=O)N[C@@H](CS)C(=O)O [N-Acetylcysteine] | **Compound was found incompatible with human growth hormone | – | – | – | incompatibility with human growth hormone | **Compound was found incompatible with glucose oxidase | – | – | – | – | – | – | – | – |
| N[C@@H](Cc1c[nH]c2ccccc12)C(=O)O [Tryptophan] | – | – | – | k = 1.3 × 10^7 L mol^−1 s^−1 | – | – | 37.0 | 1.3e+07 | 1.3e+07 | 1.3e+07 | 1.3e+07 | 82.2 | 54.6 | 9.1 |
